# Measured values from patent US8178688B2, “Benzamidine derivatives, process for the preparation thereof and pharmaceutical composition comprising the same” (Dong Wha Pharmaceutical Co., Ltd., priority 2004, dated 2012).
# Like-named read-outs stand apart in the source and are kept apart here.
# Columns and labels:
# [1] = system: osteoclast differentiation; assay: Inhibitory effects on osteoclast differentiation (co-culture of bone marrow cells with osteoblast, TRAP staining); assay type: cell-based, mice; details: Mus musculus, Osteoclast, 168 h, read-out: % inhibitory activity on osteoclastogenesis
# In short: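 Bone marrow cells from 6–8-week male ddY mice co-cultured with neonatal ICR mouse calvarial osteoblasts in α-MEM/FBS with dexamethasone (10^−7M) and vitamin D3 (10^−8M) for 7 days, compound and medium renewed every 2–3 days. TRAP-positive cells with ≥3 nuclei counted; inhibition given as percent of control.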
# cells = assay: Cytotoxicity test (MTT); assay type: cell-based; details: 10^−6M, 72 hrs, compared with the control group
# Procedure: Cytotoxic effect of benzamidine derivatives was evaluated by the experiment described below.
# The test substance was diluted in appropriate solvent at 10^−2M concentration. […] Cells to be used in cytotoxitic test were plated on a 96-well microplate in a dose of 1×10^4 cell/100 μL per well and cultured for 72 hrs. 25 μL of MTT [3-(4,5-dimethyl-2-thiazolyl)-2,5-diphenyl-2H-tetrazolium bromide] dissolved in PBS at 2 mg/mL were added before 4 hrs of the end of culture. After reaction, the plates were centrifuged, medium was decanted and 100 μL of DMSO was added to dissolve formazan. Lastly, the absorbance of developed plates was measured at 540 nm.
# [2] = 1 μm, co-culture of bone marrow cells and osteoblast, 7 days, TRAP-positive osteoclasts versus controls
# [3] = 1 m, co-culture of bone marrow cells and osteoblast, 7 days, TRAP-positive osteoclasts versus controls
Structure (SMILES),"inhibition at 1 µM [1, 2]",Survival rates of the cells (cells; MC3T3-E1 cells),Survival rates of the cells (cells; ST2 cells),inhibition at 1 µM [1],"inhibition at 1 µM [1, 3]"
"N=C(NO)c1ccc(OCCCCCOc2ccc(-c3csc(C4CCCCC4)n3)cc2)cc1 [Example 8, N-hydroxy-4-(5-[4-(2-cyclohexyl-1,3-thiazol-4-yl)phenoxy]pentoxy)-benzamidine]",88.3%,76.9%,46.2%,,
"Cc1sc(C(C)(C)C)nc1-c1ccc(OCCCCCOc2ccc(C(=N)NO)cc2)cc1 [Example 16, N-hydroxy-4-(5-[4-(2-t-butyl-5-methyl-1,3-thiazol-4-yl)phenoxy]pentoxy)-benzamidine]",,39.6%,30.1%,64.3%,
"CCCCc1sc(C(C)C)nc1-c1ccc(OCCCCCOc2ccc(C(=N)NO)cc2)cc1 [Example 32, N-hydroxy-4-(5-[4-(5-butyl-2-isopropyl-1,3-thiazol-4-yl)phenoxy]pentoxy)-benzamidine]",59.4%,100.0%,55.1%,,
"CCCCc1sc(C2CCCCC2)nc1-c1ccc(OCCCCCOc2ccc(C(=N)NO)cc2)cc1 [Example 35, N-hydroxy-4-(5-[4-(5-butyl-2-cyclohexyl-1,3-thiazol-4-yl)phenoxy]pentoxy)-benzamidine]",,73.6%,56.3%,69.8%,
"CCCCc1sc(C(C)(C)C)nc1-c1ccc(OCCCCCOc2ccc(C(=N)NO)cc2)cc1 [Example 37, N-hydroxy-4-(5-[4-(5-butyl-2-t-butyl-1,3-thiazol-4-yl)phenoxy]pentoxy)-benzamidine]",,74.4%,40.5%,52.9%,
"N=C(NO)c1ccc(OCCCCCOc2ccc(-c3nc(-c4ccccc4)sc3Cc3ccccc3)cc2)cc1 [Example 40, N-hydroxy-4-(5-[4-(5-benzyl-2-phenyl-1,3-thiazol-4-yl)phenoxy]pentoxy)-benzamidine]",60.1%,100.0%,53.3%,,
"Cc1nc(-c2ccc(OCCCCCOc3ccc(C(=N)NO)cc3)cc2)c(CC2CCCC2)s1 [Example 45, N-hydroxy-4-(5-[4-(5-cyclopentylmethyl-2-methyl-1,3-thiazol-4-yl)phenoxy]pentoxy)-benzamidine]",97.7%,75.9%,37.0%,,
"CCc1nc(-c2ccc(OCCCCCOc3ccc(C(=N)NO)cc3)cc2)c(CC2CCCC2)s1 [Example 46, N-hydroxy-4-(5-[4-(5-cyclopentylmethyl-2-ethyl-1,3-thiazol-4-yl)phenoxy]pentoxy)-benzamidine]",96.9%,100.0%,48.3%,,
"N=C(NO)c1ccc(OCCCCCOc2ccc(-c3nc(-c4ccccc4)sc3CC3CCCC3)cc2)cc1 [Example 48, N-hydroxy-4-(5-[4-(5-cyclopentylmethyl-2-phenyl-1,3-thiazol-4-yl)phenoxy]pentoxy)-benzamidine]",72.1%,100.0%,51.2%,,
"N=C(NO)c1ccc(OCCCCCOc2ccc(-c3nc(-c4cccnc4)sc3CC3CCCC3)cc2)cc1 [Example 49, N-hydroxy-4-(5-[4-(5-cyclopentylmethyl-2-pyridin-3-yl-1,3-thiazol-4-yl)phenoxy]pentoxy)-benzamidine]",77.1%,83.5%,39.0%,,
"N=C(NO)c1ccc(OCCCCCOc2ccc(-c3nc(C4CCCCC4)sc3CC3CCCC3)cc2)cc1 [Example 50, N-hydroxy-4-(5-[4-(5-cyclopentylmethyl-2-cyclohexyl-1,3-thiazol-4-yl)phenoxy]pentoxy)-benzamidine]",,81.0%,61.0%,79.8%,
"CCCCCc1nc(-c2ccc(OCCCCCOc3ccc(C(=N)NO)cc3)cc2)c(CC2CCCC2)s1 [Example 51, N-hydroxy-4-(5-[4-(5-cyclopentylmethyl-2-pentyl-1,3-thiazol-4-yl)phenoxy]pentoxy)-benzamidine]",,95.5%,66.5%,74.8%,
"N=C(NO)c1ccc(OCCCCCOc2ccc(-c3csc(N)n3)cc2)cc1 [Example 57, N-hydroxy-4-(5-[4-(2-amino-1,3-thiazol-4-yl)phenoxy]pentoxy)-benzamidine]",60.4%,52.1%,19.9%,,
"CCCCc1sc(N)nc1-c1ccc(OCCCCCOc2ccc(C(=N)NO)cc2)cc1 [Example 63, N-hydroxy-4-(5-[4-(2-amino-5-butyl-1,3-thiazol-4-yl)phenoxy]pentoxy)-benzamidine]",,52.5%,29.3%,,56.5%
"N=C(NO)c1ccc(OCCCCCOc2ccc(-c3nc(N)sc3CC3CCCC3)cc2)cc1 [Example 67, N-hydroxy-4-(5-[4-(2-amino-5-cyclopentylmethyl-1,3-thiazol-4-yl)phenoxy]pentoxy)-benzamidine]",,68.9%,40.0%,,81.4%
"CNc1nc(-c2ccc(OCCCCCOc3ccc(C(=N)NO)cc3)cc2)c(C)s1 [Example 86, N-hydroxy-4-(5-[4-(5-methyl-2-methylamino-1,3-thiazol-4-yl)phenoxy]pentoxy)-benzamidine]",,100.0%,48.6%,,52.9%
"CCNc1nc(-c2ccc(OCCCCCOc3ccc(C(=N)NO)cc3)cc2)c(C)s1 [Example 87, N-hydroxy-4-(5-[4-(2-ethylamino-5-methyl-1,3-thiazol-4-yl)phenoxy]pentoxy)-benzamidine]",,97.3%,49.8%,,58.1%
"CCCNc1nc(-c2ccc(OC(C)CCCOc3ccc(C(=N)NO)cc3)cc2)c(C)s1 (stereo not drawn) [Example 88, N-hydroxy-4-(4-[4-(5-methyl-2-propylamino-1,3-thiazol-4-yl)phenoxy]pentoxy)-benzamidine]",,94.3%,48.7%,,15.9%
"Cc1sc(NC(=O)c2ccncc2)nc1-c1ccc(OCCCCCOc2ccc(C(=N)NO)cc2)cc1 [Example 91, N-hydroxy-4-(5-[4-(5-methyl-2-(4-pyridylcarbonyl)amino-1,3-thiazol-4-yl)phenoxy]pentoxy)-benzamidine]",,41.3%,20.8%,,92.9%
